According to patent US9340532B2, “Methods and compositions for inhibiting CNKSR1” (PHUSIS THERAPEUTICS, INC., priority 2012, dated 2016):
Like-named read-outs stand apart in the source and are kept apart here.

Assays:
[1] = target: T1, CNK1 PH-domain (CNKSR1) (Homo sapiens, UniProt Q969H4); assay: SPR binding assay (Biacore T100), CNK1 PH-domain
T1 construct: The PH-domain His-fusion proteins (CNK1 and AKT1) were expressed and immobilized on a NTA chip; made in house
T1 sequence (Q969H4 403-502 limits assumed): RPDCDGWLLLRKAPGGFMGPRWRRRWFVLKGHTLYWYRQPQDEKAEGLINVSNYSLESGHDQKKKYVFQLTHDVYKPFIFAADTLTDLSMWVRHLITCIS
Experimental: (§1) All interaction analyses were done with a Biacore T100 Control Software v3.2, and BIAevaluation v4.1 analysis software (Biacore). The PH-domain His-fusion proteins (CNK1 and AKT1) were expressed and immobilized on a NTA chip to a level of 10,000 response units or less. Small molecule analytes at concentrations ranging from 50 μM to 0.010 μM were injected at a high flow rate (30 μL/min) DMSO concentrations in all samples and running buffer were 1-5% (v/v).
Other docking was performed using modeling algorithms with state-of-the-art commercial drug discovery software (Schrodinger suite). […] Additionally, ligand-based approaches provided an alternative to structure based drug discovery. Ligand-based virtual screening methodologies can take into account shape and electrostatics (like ROCS) and the pharmacophoric features (acceptor, donor, hydrophobic, aromatic, etc.) of its functional groups. […] SPR interaction analyses of all other compounds was undertaken using a Biacore T100 with Control and Evaluation software kit.

[2] = target: T2, AKT1 PH-domain (Homo sapiens, UniProt P31749); assay: SPR binding assay (Biacore T100), AKT1 PH-domain; details: for Kd: read-out: AKT KD
T2 construct: The PH-domain His-fusion proteins (CNK1 and AKT1) were expressed and immobilized on a NTA chip; made in house
Experimental: as §1
A commercially available docking package, GOLD (GOLD [3.2], CCDC: Cambridge, UK, 2007) was used to evaluate the docking of compounds 1-7 into the binding pocket, see e.g. Table 5. Other docking was performed using modeling algorithms with state-of-the-art commercial drug discovery software (Schrodinger suite). GLIDE was chosen as the docking algorithm used to select and optimize compounds, providing a GlideScore as a rough estimate of binding affinity that was used to rank and select the best compounds. Additionally, ligand-based approaches provided an alternative to structure based drug discovery. Ligand-based virtual screening methodologies can take into account shape and electrostatics (like ROCS) and the pharmacophoric features (acceptor, donor, hydrophobic, aromatic, etc.) of its functional groups. Inositol tetraphosphate (IP4) binding to the PH-domain of CNKSR1 provided a good starting point for shape screening. Both structure-based and ligand-based approaches were used to find novel compounds (Table 7) and to refine and improve lead compounds (Tables 8, and 9). SPR interaction analyses for Compounds 1 through 7 were performed with a Biacore 2000, using Biacore2000 Control Software v3.2 and BIAevaluation v4.1 analysis software (Biacore) as described in Mol Cancer Ther 7:2621 (2008). SPR interaction analyses of all other compounds was undertaken using a Biacore T100 with Control and Evaluation software kit.

[3] = test system: A549 (KRAS mutant cell line); assay: Proliferation Assay A549; format: cell-based; details: Homo sapiens, N = 2 experiments
Experimental: (§2) The isogenic KRAS lines harboring G12D, G12C, and G12V were obtained from Horizon Discovery labs on a one year lease. These cells were cultured in McCoys media with 10% FBS to 80% confluency. Cells were then released from flasks via trypsinization and plated into 96-well plates at an initial density range of 2000 cells per well. Cells were allowed 24 hours to attach, and then the agents were added to the culture media at a range of concentrations from 0-100 μM. Cells were incubated for 72 hours with the drugs, and then viability was assessed using an MTS viability assay. Cells were exposed to MTS reagent (Promega) dissolved in PBS (Hyclone) at a concentration of 200 μL reagent/mL media for 2 hours. Absorbance was then read at 490 nm, and viability was expressed as a percentage normalized between the negative control (no cells plated) and the condition of cells with no drug added (100% viability) normalized as the upper limit of viability.
(§3) Our panel of 30 cell lines and an extensive characterization were obtained from Dr. John Minna (UTSW). All cell lines were cultured in RPMI 1640 with 10% FBS. Cells were treated with concentrations of agents at concentrations 0.01 to 50 μM and evaluated as described above. IC50's were determined using Excelfit.

[4] = test system: H1373 (KRAS mutant cell line); assay: Proliferation Assay H1373; format: cell-based; details: Homo sapiens, NCI-H1373, N = 2 experiments
Experimental: as §2, §3

[5] = test system: H1975 (KRAS wildtype cell line); assay: Proliferation Assay H1975; format: cell-based; details: Homo sapiens, NCI-H1975, n = 1
Experimental: as §2, §3

[6] = test system: H226 (KRAS wildtype cell line); assay: Proliferation Assay H226; format: cell-based; details: Homo sapiens, NCI-H226, n = 1
Experimental: as §2, §3

T2 sequence (P31749 5-108 limits assumed): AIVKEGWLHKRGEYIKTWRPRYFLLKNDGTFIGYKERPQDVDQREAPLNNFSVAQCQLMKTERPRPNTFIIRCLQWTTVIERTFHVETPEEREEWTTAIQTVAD

Row | Structure (SMILES) | Kd ([1]; Table 8, read-out: CNK KD) [µM] | Surface Plasmon Resonance CNKSR1 binding (RU max) ([1]; date 12 09 13) [RU * 100/Da] | Surface Plasmon Resonance CNKSR1 stability (RU max post-injection) ([1]; date 12 09 13) [RU * 100/Da] | Kd ([2]; Table 8) [µM] | IC50 [3] [µM] | IC50 [4] [µM] | IC50 [5] [µM] | IC50 [6] [µM] | Surface Plasmon Resonance CNKSR1 binding (RU max) ([1]; date 11 26 13) [RU * 100/Da] | Surface Plasmon Resonance CNKSR1 stability (RU max post-injection) ([1]; date 11 26 13) [RU * 100/Da] | AKT KD ([2]; Table 7, curated diversity set) | Kd ([1]; Table 6, read-out: CNKS KD) [µM] | AKT KD ([2]; Table 8)
1 | CCOC(=O)/C=C/c1cc(NS(=O)(=O)c2cccs2)c2c(c1OC)OCO2 [Compound 86, (E)-ethyl 3-(4-methoxy-7-(thiophene-2-sulfonamido)benzo[d][1,3]dioxol-5-yl)acrylate] | 123 | −0.807 | −0.197 | > 500 | > 100 | > 100 | > 100 | > 100 | – | – | – | – | –
2 | COc1cc(NS(=O)(=O)c2cccs2)c(SC)c(/C=C/N2C(=O)COC2=O)c1O [Compound 133] | – | – | – | – | > 100 | > 100 | > 100 | 95 | −1.537 | −0.123 | – | – | –
3 | Nc1cccc(-c2cc(C(=O)O)c3cc(Cl)ccc3n2)c1 [Compound 66] | – | – | – | – | – | – | – | – | – | – | Bound | – | –
4 | Cc1ccc(-c2csc(Cn3nc(C4OC5CCOC54)c4ccccc4c3=O)n2)cc1 (stereo not shown) [Compound 124] | – | −0.369 | −0.053 | – | 50 | 50 | > 100 | 95 | – | – | – | – | –
5 | CSc1c(N)cc(O)c(O)c1/C=C/C(=O)O [Compound 110, (2E)-3-[3-amino-5,6-dihydroxy-2-(methylsulfanyl)phenyl]prop-2-enoic acid] | – | 0.217 | 0.032 | 178 | 27 | 28 | > 100 | 65 | – | – | – | – | –
6 | Cc1ccc(-c2csc(Cn3nc(CC4CN=CCO4)c4ccccc4c3=O)n2)cc1 (stereo not shown) [Compound 80] | – | – | – | – | – | – | – | – | – | – | – | > 100 | –
7 | Cc1c(Cl)ccc2c(C(=O)O)cc(-c3cccnc3)nc12 [Compound 64] | – | – | – | – | – | – | – | – | – | – | Bound | – | –
8 | Cc1ccc(-c2csc(Cn3nc(CC(=O)NCC(N)=O)c4ccccc4c3=O)n2)cc1 [Compound 82] | – | 1.304 | 0.544 | – | 51 | 65 | 70 | > 100 | – | – | – | – | –
9 | O=C(O)/C=C/c1cc(NS(=O)(=O)c2cccs2)c2c(c1O)OCO2 [Compound 89, (E)-3-(4-hydroxy-7-(thiophene-2-sulfonamido)benzo[d][1,3]dioxol-5-yl)acrylic acid] | 3.37 | 1.350 | 1.401 | – | > 100 | > 100 | > 100 | > 100 | – | – | – | – | –
10 | CN1CC(=O)N(/C=C/c2cc(N(S(=O)(=O)c3cccs3)S(=O)(=O)c3cccs3)c3c(c2O)OCO3)C1=O [Compound 128] | – | −0.541 | −0.304 | – | > 100 | > 100 | > 100 | > 100 | 1.409 | 0.456 | – | – | –
11 | CCOC(=O)/C=C/c1cc(NS(=O)(=O)c2cccs2)c2c(c1OC)OCO2 [Compound 129] | – | – | – | – | – | – | – | – | −0.133 | −0.041 | – | – | –
12 | CN1CC(=O)N(/C=C/c2cc(NS(=O)(=O)c3cccs3)c3c(c2O)OCO3)C1=O [Compound 91] | – | – | – | – | > 100 | > 100 | > 100 | > 100 | −1.867 | 0.288 | – | – | –
13 | O=C(O)CCc1cc(NS(=O)(=O)c2cccs2)c2c(c1O)OCO2 [Compound 90, 3-(4-hydroxy-7-(thiophene-2-sulfonamido)benzo[d][1,3]dioxol-5-yl)propanoic acid] | – | −7.809 | −3.766 | – | > 100 | > 100 | > 100 | > 100 | – | – | – | – | –
14 | COc1ccc(OC)c(-c2cc(C(=O)O)c3nc(C)[nH]c3n2)c1 [Compound 34] | – | – | – | – | – | – | – | – | – | – | Bound | – | –
15 | Cc1ccc(-c2csc(Cn3nc(CC(=O)NCCC(N)=O)c4ccccc4c3=O)n2)cc1 [Compound 81] | – | 0.316 | 0.154 | – | 100 | 95 | 80 | > 100 | – | – | – | 109 | –
16 | Cc1ccc(-c2csc(Cn3nc(CC(O)C[N+](=O)[O-])c4ccccc4c3=O)n2)cc1 (stereo not shown) [Compound 125] | – | −0.380 | −0.127 | – | 38 | 60 | 40 | 65 | – | – | – | – | –
17 | COc1c(/C=C/C(=O)O)cc(NS(=O)(=O)c2cccs2)c2c1OCO2 [Compound 84, (E)-3-(4-methoxy-7-(thiophene-2-sulfonamido)benzo[d][1,3]dioxol-5-yl)acrylic acid] | – | – | – | – | > 100 | > 100 | > 100 | > 100 | – | – | – | – | No binding
18 | O=C(O)CCc1ccc(-c2ccc(Br)cc2)n1CCC(=O)O [Compound 67] | – | – | – | – | – | – | – | – | – | – | Bound | – | –
19 | COc1cc(NS(=O)(=O)c2cccs2)c(SC)c(/C=C/N2C(=O)CN(C)C2=O)c1O [Compound 132] | – | – | – | – | 72 | 60 | > 100 | 60 | 0.457 | 0.906 | – | – | –
20 | Cc1ccc(-c2csc(Cn3nc(CC(O)CN)c4ccccc4c3=O)n2)cc1 (stereo not shown) [Compound 126] | – | −0.166 | −0.031 | – | 27 | 16 | 27 | 19 | – | – | – | – | –
21 | O=C1COC(=O)N1/C=C/c1cc(NS(=O)(=O)c2cccs2)c2c(c1O)OCO2 [Compound 100] | – | – | – | – | > 100 | > 100 | > 100 | > 100 | −1.240 | −0.026 | – | – | –
22 | Cc1ccc(-c2csc(Cn3nc(CC(=O)NS(C)(=O)=O)c4ccccc4c3=O)n2)cc1 [Compound 127] | – | 3.050 | 2.868 | – | > 100 | > 100 | > 100 | > 100 | – | – | – | – | –
